According to patent publication US7884242B2, “N-heterocyclylphthaldiamides as insecticides” (Bayer CropScience AG, priority 2004, dated 2011):

Legend:
[1] = log P determination with LC-MS under acidic conditions, pH 2.7; type: physicochemical; details: reverse phase HPLC column (C 18)
Method: (§1) The determination of the log P values given in the above table and preparation examples is carried out in accordance with EEC directive 79/831 Annex V.A8 by HPLC (High Performance Liquid Chromatography) on a reverse phase column (C 18). Temperature: 43° C. The determination with LC-MS under acidic conditions is carried out at pH 2.7 with 0.1% aqueous formic acid and acetonitrile (contains 01% formic acid) as eluents; linear gradient from 10% acetonitrile to 95% acetonitrile. Calibration was is carried out with unbranched alkan-2-ones (with 3 to 16 carbon atoms) of known log P values (Determination of log P values by the retention times by linear interpolation between two sequential alkanones).

[2] = tested on: larvae of the mustard leaf beetle (Phaedon cochleariae); assay: Phaedon test (spray treatment); type: in vivo; details: for activity in Phaedon test (spray treatment): statement in words
Method: (§2) [table] For the preparation of a suitable active compound formulation 1 part by weight of the active compound is mixed with the above amounts of solvent and emulsifier and the concentrate is diluted to the desired concentration with water containing emulsifier. China cabbage slices (Brassica pekinensis) are sprayed with an active compound preparation of the desired composition and after drying infected with larvae of the mustard leaf beetle (Phaedon cochleariae). After the desired time the activity in % is determined. Here 100% means that all beetle larvae were killed; 0% means that no beetle larvae were killed.

[3] = tested on: caterpillars of the fall army worm (Spodoptera frugiperda); assay: Spodoptera frugiperda test (spray treatment); type: in vivo; details: for pest or weed control at 4 g/ha: Spodoptera frugiperda, 168 h, spray treatment, maize leaf sections, after 7 d, read-out: Death rate in % after 7d; for activity in Spodoptera frugiperda test (spray treatment): statement in words
Method: as §2, with “Maize leaf sections (Zea mays)” for “China cabbage slices (Brassica pekinensis)”, “concentration” for “composition”, “caterpillars” for “larvae”, “fall army worm (Spodoptera frugiperda).” for “mustard leaf beetle (Phaedon cochleariae).”, “caterpillars” for “beetle larvae”

[4] = tested on: green peach aphid (Myzus persicae); assay: Myzus test (spray treatment); type: in vivo; details: for pest or weed control at 100 g/ha: Myzus persicae, in Brassica oleracea, 120 h, spray treatment, China cabbage slices, after 5 d, read-out: Death rate in % after 5d; for activity in Myzus test (spray treatment): statement in words
Method: (§3) [table] For the preparation of a suitable active compound formulation 1 part by weight of the active compound is mixed with the above amounts of solvent and emulsifier and the concentrate is diluted to the desired concentration with water containing emulsifier. China cabbage slices (Brassica pekinensis) that are infected with all stages of the green peach aphid (Myzus persicae) are sprayed with an active compound preparation at the desired concentration. After the desired time the activity in % is determined. Here 100% means that all aphids were killed; 0% means that no aphids were killed.

[5] = tested on: cotton aphid (Aphis gossypii); assay: Aphis gossypii test; type: in vivo; details: for Death rate in % after 7d: cotton leaves immersed; for activity in Aphis gossypii test: statement in words
Method: as §3, with “Cotton leaves (Gossypium hirsutum) heavily infested with the cotton aphid (Aphis gossypii)” for “China cabbage slices (Brassica pekinensis) that”, “treated by immersion in” for “infected with all stages of”, “the” for “the green peach aphid (Myzus persicae) are sprayed with an”, “death rate” for “activity”

[6] = tested on: caterpillars of the diamond back moth (Plutella xylostella); assay: Plutella test; type: in vivo; details: for Death rate in % after 7d: cabbage leaves dipped; for activity in Plutella test: statement in words
Method: [table] For the preparation of a suitable active compound formulation 1 part by weight of the active compound is mixed with the above amounts of solvent and emulsifier and the concentrate is diluted to the desired concentration with water containing emulsifier. Cabbage leaves (Brassica oleracea) are treated by dipping into the active compound preparation of the desired concentration and infected with caterpillars of the diamond back moth (Plutella xylostella) while the leaves were still wet. After the desired time the death rate is determined as %. Here 100% means that all caterpillars were killed; 0% means no caterpillars were killed.

[7] = log P determination by HPLC on reverse phase column, pH 2.3; type: physicochemical; details: reverse phase HPLC column (C 18), reverse phase column (C 18), pH 2.3, 43° C.
Method: as §1, with “is carried out” for “with LC-MS”, “conditions” for “conditions is carried out”, “2.3” for “2.7”, “phosphoric” for “formic”, “acetonitrile” for “acetonitrile (contains 01% formic acid)”, “of” for “from”

[8] = Phaedon cochleariae, 168 h, spray treatment, China cabbage slices, after 7 d, read-out: Death rate in % after 7d

SMILES	chromatographic logP [1]	chromatographic logP [7]	pest or weed control at 100 g/ha [2, 8]	activity in Phaedon test (spray treatment) [2]	pest or weed control at 4 g/ha [3]	activity in Spodoptera frugiperda test (spray treatment) [3]	pest or weed control at 100 g/ha [4]	activity in Myzus test (spray treatment) [4]	Death rate in % after 7d ([5]; 20 ppm)	activity in Aphis gossypii test [5]	Death rate in % after 7d ([6]; 0.8 ppm)	activity in Plutella test [6]	Death rate in % after 7d ([6]; 0.16 ppm)	Death rate in % after 7d ([5]; 100 ppm)	pest or weed control at 4 g/ha ([2]; Phaedon cochleariae, 168 h, 4 g/ha, spray treatment, China cabbage slices, after 7 d, read-out: Death rate in % after 7d)
Cc1sc(CO)cc1[N+](=O)[O-] [(5-methyl-4-nitro-2-thienyl)methanol]	1.4														
CSC[C@H](C)NC(=O)c1c(Cl)cccc1C(=O)Nc1ccc(Cn2nc(C(F)(F)F)cc2C(F)(F)F)nc1C [Example 1, N^1-(6-{[3,5-bis(trifluoromethyl)-1H-pyrazol-1-yl]methyl}-2-methylpyridin-3-yl)-3-chloro-N^2-[(1S)-1-methyl-2-(methylthio)ethyl]phthalamide]			100%	good activity	100%	good activity	100%	good activity							
Cc1nc(Cn2nc(C(F)(F)F)cc2C(F)(F)F)ccc1NC(=O)c1cccc(Cl)c1C(=O)N[C@@H](C)C[S+](C)[O-] (stereo partly drawn) [Example 2, N^1-(6-{[3,5-bis(trifluoromethyl)-1H-pyrazol-1-yl]methyl}-2-methylpyridin-3-yl)-3-chloro-N^2-[(1S)-1-methyl-2-(methylsulphinyl)ethyl]phthalamide]			100%	good activity	100%	good activity	100%	good activity							
CSC[C@H](C)NC(=O)c1c(I)cccc1C(=O)Nc1ccc(Cn2nc(C(F)(F)F)cc2C(F)(F)F)nc1C [Example 6]		3.68	100%	good activity	100%	good activity	100%	good activity	95%	good activity	100%	good activity			
Cc1nc(Cn2nc(C(F)(F)F)cc2C(F)(F)F)ccc1NC(=O)c1cccc(I)c1C(=O)N[C@@H](C)C[S+](C)[O-] (stereo partly shown) [Example 7]		2.42	90%	good activity	100%	good activity	90%	good activity							
Cc1nc(Cn2nc(C(F)(F)F)cc2C(F)(F)F)ccc1NC(=O)c1cccc(I)c1C(=O)N[C@@H](C)CS(C)(=O)=O [Example 8]		2.8	100%	good activity	100%	good activity	100%	good activity							
CSC[C@H](C)NC(=O)c1c(Cl)cccc1C(=O)Nc1cnc(Cn2nc(C(F)(F)C(F)(F)F)nc2C(F)(F)F)nc1C [Example 30]		3.62			100%	good activity	90%	good activity							
CSC[C@H](C)NC(=O)c1c(Br)cccc1C(=O)Nc1cnc(Cn2nc(C(F)(F)C(F)(F)F)nc2C(F)(F)F)nc1C [Example 31]		3.67			100%	good activity	100%	good activity							
Cc1nc(Cn2nc(C(F)(F)F)cc2C(F)(F)F)ncc1NC(=O)c1cccc(Cl)c1C(=O)N[C@@H](C)CS(C)(=O)=O [Example 34]		2.56			100%	good activity		good activity							
Cc1nc(Cn2cc(C(F)(F)C(F)(F)F)c(C(F)(F)C(F)(F)F)n2)ncc1NC(=O)c1cccc(Cl)c1C(=O)N[C@@H](C)C[S+](C)[O-] (stereo partly shown) [Example 65]		2.91		good activity	100%	good activity	100%	good activity		good activity				80%	100%

Further lines, with some results ahead:

chromatographic logP [1]	chromatographic logP [7]	SMILES	pest or weed control at 100 g/ha [2, 8]	activity in Phaedon test (spray treatment) [2]	pest or weed control at 4 g/ha [3]	activity in Spodoptera frugiperda test (spray treatment) [3]	pest or weed control at 100 g/ha [4]	activity in Myzus test (spray treatment) [4]	Death rate in % after 7d ([5]; 20 ppm)	activity in Aphis gossypii test [5]	Death rate in % after 7d ([6]; 0.8 ppm)	activity in Plutella test [6]	Death rate in % after 7d ([6]; 0.16 ppm)	Death rate in % after 7d ([5]; 100 ppm)	pest or weed control at 4 g/ha ([2]; Phaedon cochleariae, 168 h, 4 g/ha, spray treatment, China cabbage slices, after 7 d, read-out: Death rate in % after 7d)
	2.28	Cc1nc(Cn2nc(C(F)(F)F)nc2C(F)(F)F)ccc1NC(=O)c1cccc(I)c1C(=O)N[C@@H](C)C[S+](C)[O-] (stereo partly shown) [Example 13]	100%	good activity	100%	good activity	100%	good activity				good activity	95%		
	3.39	CSC[C@H](C)NC(=O)c1c(Cl)cccc1C(=O)Nc1ccc(Cn2nc(C(F)(F)F)nc2C(F)(F)F)nc1C [Example 14]	90%	good activity	100%	good activity	90%	good activity							
	2.17	Cc1nc(Cn2nc(C(F)(F)F)nc2C(F)(F)F)ccc1NC(=O)c1cccc(Cl)c1C(=O)N[C@@H](C)C[S+](C)[O-] (stereo partly shown) [Example 15]	100%	good activity	100%	good activity	100%	good activity							
	2.56	Cc1nc(Cn2nc(C(F)(F)F)nc2C(F)(F)F)ccc1NC(=O)c1cccc(Cl)c1C(=O)N[C@@H](C)CS(C)(=O)=O [Example 16]	100%	good activity	100%	good activity	100%	good activity		good activity		good activity	100%	80%	
1.9		Cc1nc(Cn2nc(C(F)(F)F)cc2C(F)(F)F)ccc1N [IIIa-1, 6-{[3,5-bis(trifluoromethyl)-1H-pyrazol-1-yl]methyl}-2-methylpyridin-3-amine]													
2.2		Cc1sc(Cn2nc(C(F)(F)F)nc2C(F)(F)F)cc1N [IIIb-1, 5-{[3,5-bis(trifluoromethyl)-1H-1,2,4-triazol-1-yl]methyl}-2-methylthiophene-3-amine]													
